{"source": "ChEMBL document CHEMBL1201862", "about": "“PubChem BioAssay data set” (2004)", "key": {"[1]": {"biological_target": "T1, High affinity choline transporter 1 (Homo sapiens, UniProt Q9GZV3)", "T1 sequence (Q9GZV3 whole entry)": "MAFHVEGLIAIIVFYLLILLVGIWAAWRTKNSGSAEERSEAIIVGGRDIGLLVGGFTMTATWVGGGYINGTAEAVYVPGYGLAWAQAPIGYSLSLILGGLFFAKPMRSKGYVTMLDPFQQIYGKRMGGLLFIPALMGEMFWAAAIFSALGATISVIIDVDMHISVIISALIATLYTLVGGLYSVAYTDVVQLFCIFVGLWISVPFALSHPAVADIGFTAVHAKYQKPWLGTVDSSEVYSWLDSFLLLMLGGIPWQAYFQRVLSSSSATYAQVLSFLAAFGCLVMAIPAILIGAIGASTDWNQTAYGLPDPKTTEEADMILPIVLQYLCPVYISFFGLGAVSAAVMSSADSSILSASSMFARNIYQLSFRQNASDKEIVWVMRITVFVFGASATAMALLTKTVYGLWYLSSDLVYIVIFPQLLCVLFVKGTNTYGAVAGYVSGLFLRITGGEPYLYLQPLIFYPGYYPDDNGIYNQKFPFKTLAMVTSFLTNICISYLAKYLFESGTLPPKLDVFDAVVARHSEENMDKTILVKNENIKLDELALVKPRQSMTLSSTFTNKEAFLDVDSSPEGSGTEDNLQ", "test": "CHT inhibitors, dose response, cell-based, 5-point CRC, membrane potential dye (AID 504840)", "assay_type": "functional"}, "[2]": {"test": "THP-1 cell cytotoxicity, dose response, cytotoxicity control for non-replicating M. tuberculosis project (AID 489025)", "assay_type": "functional"}, "[3]": {"test": "cytotoxicity toward NIH3T3 fibroblasts, dose response, counter-screen, cell-based, ATP luminescence, mouse fibroblasts (AID 2010);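 also: cells exposed to compound for about 90 hours before reading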", "assay_type": "functional"}, "[4]": {"test": "inhibitors of intracellular T. cruzi replication, confirmation, NIH3T3 host cells, beta-gal luminescence (AID 2044);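 also: luminescent beta-galactosidase reporter signal from transgenic T. cruzi replicating inside host cells; inhibitors lower the luminescence signal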", "assay_type": "functional, cell-based"}, "[5]": {"test": "Vero E6 cell cytotoxicity, dose response, cytotoxicity control for non-replicating M. tuberculosis project, secondary assay (AID 492998)", "assay_type": "functional, VeroE6", "conditions": "Vero C1008"}, "cells": {"test": "cells", "assay_type": "functional"}, "[6]": {"test": "HepG2 cell cytotoxicity, dose response, cytotoxicity control for non-replicating M. tuberculosis project (AID 489018)", "assay_type": "functional", "conditions": "Mycobacterium tuberculosis"}, "Streptococcus": {"test_system": "Streptococcus", "test": "Group A Streptococcus viability loss, dose response, counter-screen for streptokinase expression inhibitor project, luminescence, BacTiterGlo (AID 1915);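 also: potency for reduction of bacterial viability or growth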", "assay_type": "functional, organism-based", "conditions": "read-out: EC50"}, "[7]": {"test": "THP-1 cell cytotoxicity, dose response, cytotoxicity control for Vif-APOBEC3G degradation inhibitor project, THP-1 cells (AID 1117359)", "assay_type": "functional", "conditions": "Human immunodeficiency virus 1, THP-1"}, "[8]": {"biological_target": "T2, Microphthalmia-associated transcription factor (Homo sapiens, UniProt O75030)", "T2 sequence (O75030 whole entry)": "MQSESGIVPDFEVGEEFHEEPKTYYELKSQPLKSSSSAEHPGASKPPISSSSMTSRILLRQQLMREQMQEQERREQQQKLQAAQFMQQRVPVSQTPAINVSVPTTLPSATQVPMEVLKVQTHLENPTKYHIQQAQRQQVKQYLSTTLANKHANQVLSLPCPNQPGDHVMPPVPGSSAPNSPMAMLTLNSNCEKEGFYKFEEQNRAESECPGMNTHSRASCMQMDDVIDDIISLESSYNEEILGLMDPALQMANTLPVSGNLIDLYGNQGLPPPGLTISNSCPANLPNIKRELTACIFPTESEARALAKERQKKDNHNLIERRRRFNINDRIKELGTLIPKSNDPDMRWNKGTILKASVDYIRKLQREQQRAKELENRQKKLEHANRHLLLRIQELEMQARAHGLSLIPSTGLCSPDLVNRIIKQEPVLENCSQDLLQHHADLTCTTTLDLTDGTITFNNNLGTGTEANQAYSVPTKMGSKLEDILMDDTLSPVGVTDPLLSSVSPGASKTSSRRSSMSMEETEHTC", "test": "TRPM1 promoter luciferase signal decrease, dose response, MITF inhibitor project, cell-based, SK-MEL-5, cherry-picked, set 3 (AID 493073)", "assay_type": "functional"}, "Streptokinase A": {"biological_target": "T3, Streptokinase A (Streptococcus pyogenes serotype M1, UniProt P10520)", "T3 sequence (P10520 whole entry)": "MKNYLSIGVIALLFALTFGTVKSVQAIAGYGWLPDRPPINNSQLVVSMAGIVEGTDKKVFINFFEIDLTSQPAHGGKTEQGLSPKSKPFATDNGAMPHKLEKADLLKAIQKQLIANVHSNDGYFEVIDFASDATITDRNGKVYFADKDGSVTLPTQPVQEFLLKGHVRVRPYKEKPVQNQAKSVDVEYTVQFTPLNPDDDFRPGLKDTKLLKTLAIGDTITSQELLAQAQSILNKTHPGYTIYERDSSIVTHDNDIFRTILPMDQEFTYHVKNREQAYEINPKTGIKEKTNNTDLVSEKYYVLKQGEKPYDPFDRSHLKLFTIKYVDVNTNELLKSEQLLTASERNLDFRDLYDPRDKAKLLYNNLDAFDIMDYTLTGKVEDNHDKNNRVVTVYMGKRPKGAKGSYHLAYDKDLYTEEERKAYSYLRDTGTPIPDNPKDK", "test": "S. pyogenes streptokinase expression inhibitors, potency, dose response, plasminogen activation absorbance, OD405 (AID 1914);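 also: secreted streptokinase activity via plasminogen activation per viability signal from cell pellet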", "assay_type": "functional, Streptococcus pyogenes M1 GAS"}, "[9]": {"biological_target": "Neurotensin receptor type 1 (Homo sapiens, UniProt P30989)", "sequence (P30989 whole entry)": "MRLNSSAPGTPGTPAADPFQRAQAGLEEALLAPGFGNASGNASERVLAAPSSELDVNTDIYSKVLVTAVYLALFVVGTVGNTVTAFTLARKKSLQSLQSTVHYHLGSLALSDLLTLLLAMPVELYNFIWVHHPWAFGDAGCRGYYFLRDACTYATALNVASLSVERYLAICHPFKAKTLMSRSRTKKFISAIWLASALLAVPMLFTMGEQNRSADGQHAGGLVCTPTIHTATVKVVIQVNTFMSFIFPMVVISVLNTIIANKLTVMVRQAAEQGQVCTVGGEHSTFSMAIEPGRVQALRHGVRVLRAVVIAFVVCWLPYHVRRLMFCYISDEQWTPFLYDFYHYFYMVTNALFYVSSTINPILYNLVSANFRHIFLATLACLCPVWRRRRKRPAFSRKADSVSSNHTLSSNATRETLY", "assay_type": "functional"}, "[10]": {"test_system": "Streptococcus sp. 'group A'", "test": "growth inhibition of control SK(-) GAS strain, dose response, counter-screen for streptokinase expression inhibitor project, luminescence, kanamycin, BacTiterGlo, confirmation (AID 1900)", "assay_type": "functional, organism-based"}, "[11]": {"biological_target": "Luciferin 4-monooxygenase (Photinus pyralis, UniProt P08659)", "sequence (P08659 whole entry)": "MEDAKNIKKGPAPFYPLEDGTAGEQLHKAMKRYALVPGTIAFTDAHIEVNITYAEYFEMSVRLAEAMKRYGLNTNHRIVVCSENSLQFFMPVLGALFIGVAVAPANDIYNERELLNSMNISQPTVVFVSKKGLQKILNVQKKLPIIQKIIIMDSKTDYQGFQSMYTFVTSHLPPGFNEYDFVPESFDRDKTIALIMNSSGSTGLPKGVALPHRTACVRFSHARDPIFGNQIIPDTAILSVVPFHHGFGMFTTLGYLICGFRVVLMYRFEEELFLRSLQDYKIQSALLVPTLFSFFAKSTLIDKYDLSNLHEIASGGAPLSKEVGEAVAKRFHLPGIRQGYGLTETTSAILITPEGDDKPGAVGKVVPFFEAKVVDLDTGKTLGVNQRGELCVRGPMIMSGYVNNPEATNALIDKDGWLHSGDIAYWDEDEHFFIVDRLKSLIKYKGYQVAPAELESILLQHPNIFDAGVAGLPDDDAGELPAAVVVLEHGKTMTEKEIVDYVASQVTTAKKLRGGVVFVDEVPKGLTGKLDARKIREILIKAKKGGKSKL", "test": "firefly luciferase enzyme inhibitors, dose response, biochemical, luminescence (AID 1891)"}, "Hexokinase HKDC1": {"biological_target": "T4, Hexokinase HKDC1 (Homo sapiens, UniProt Q2TB90)", "T4 sequence (Q2TB90 whole entry)": "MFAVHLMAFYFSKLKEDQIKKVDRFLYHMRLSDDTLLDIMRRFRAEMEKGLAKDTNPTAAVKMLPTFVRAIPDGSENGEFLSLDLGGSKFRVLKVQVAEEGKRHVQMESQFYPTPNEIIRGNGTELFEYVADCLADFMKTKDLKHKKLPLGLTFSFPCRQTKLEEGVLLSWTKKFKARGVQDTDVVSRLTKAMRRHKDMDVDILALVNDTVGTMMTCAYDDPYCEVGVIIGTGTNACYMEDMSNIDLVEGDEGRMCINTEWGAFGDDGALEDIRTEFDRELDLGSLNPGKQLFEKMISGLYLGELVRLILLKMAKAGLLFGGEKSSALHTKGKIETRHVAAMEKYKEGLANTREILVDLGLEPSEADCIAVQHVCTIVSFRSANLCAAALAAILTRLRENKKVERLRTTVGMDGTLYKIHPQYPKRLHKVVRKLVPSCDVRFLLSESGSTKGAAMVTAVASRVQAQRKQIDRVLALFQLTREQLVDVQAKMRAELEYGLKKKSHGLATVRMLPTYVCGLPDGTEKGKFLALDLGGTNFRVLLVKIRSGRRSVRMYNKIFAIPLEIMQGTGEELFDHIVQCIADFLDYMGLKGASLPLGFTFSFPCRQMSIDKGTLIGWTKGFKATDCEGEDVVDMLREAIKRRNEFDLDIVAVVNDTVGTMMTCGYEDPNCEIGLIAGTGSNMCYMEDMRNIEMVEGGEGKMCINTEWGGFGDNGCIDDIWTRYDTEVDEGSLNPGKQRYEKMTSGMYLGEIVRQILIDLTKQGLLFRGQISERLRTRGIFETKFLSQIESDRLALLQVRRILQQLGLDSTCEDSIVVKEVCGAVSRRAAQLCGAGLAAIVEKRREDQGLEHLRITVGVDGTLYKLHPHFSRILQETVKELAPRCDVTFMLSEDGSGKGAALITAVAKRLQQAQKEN", "test": "HKDC1 hexokinase inhibitors, dose response, biochemical, W721R variant (AID 504729)", "assay_type": "functional"}, "[12]": {"test": "Luminescence Cell-Based Dose Confirmation HTS to Identify Inhibitors of Platelet Dense Granule Release. [Related pubchem assays: 1663 (Primary HTS), 1678 (Summary of Project)]", "assay_type": "functional"}, "[13]": {"biological_target": "C-C chemokine receptor type 6 (Homo sapiens, UniProt P51684)", "sequence (P51684 whole entry)": "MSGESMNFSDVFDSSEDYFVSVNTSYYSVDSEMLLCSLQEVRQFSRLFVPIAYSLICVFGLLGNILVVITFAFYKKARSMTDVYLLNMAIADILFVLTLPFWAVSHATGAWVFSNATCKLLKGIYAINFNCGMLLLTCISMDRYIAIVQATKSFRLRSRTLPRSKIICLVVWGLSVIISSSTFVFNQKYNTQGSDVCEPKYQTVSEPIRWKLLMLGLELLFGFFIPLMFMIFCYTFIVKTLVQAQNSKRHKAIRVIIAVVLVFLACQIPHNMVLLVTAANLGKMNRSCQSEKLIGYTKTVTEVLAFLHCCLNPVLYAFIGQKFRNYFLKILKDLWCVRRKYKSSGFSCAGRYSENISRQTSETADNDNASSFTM", "test": "CCR6 receptor antagonists, dose response, cell-based, luminescent beta-arrestin readout (AID 504728)", "assay_type": "functional"}, "Vero": {"test_system": "Vero", "test": "Vero cell cytotoxicity, cytotoxicity control for flavivirus capping enzyme inhibitors (AID 588742)", "assay_type": "functional", "conditions": "Chlorocebus sabaeus"}, "Nonstructural protein 1": {"biological_target": "Nonstructural protein 1 (Influenza A virus, UniProt Q194T2)", "sequence (Q194T2 whole entry)": "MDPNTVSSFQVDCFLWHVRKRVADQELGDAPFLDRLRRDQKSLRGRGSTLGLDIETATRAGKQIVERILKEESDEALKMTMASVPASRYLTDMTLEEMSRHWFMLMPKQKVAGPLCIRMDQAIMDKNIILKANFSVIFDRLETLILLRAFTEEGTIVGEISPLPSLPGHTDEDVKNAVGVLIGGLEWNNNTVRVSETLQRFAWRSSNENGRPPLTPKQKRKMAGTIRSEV", "assay_type": "functional, Influenza A virus (A/California/07/2009(H1N1))"}, "Beta-galactosidase": {"biological_target": "Beta-galactosidase (Escherichia coli, UniProt Q8VNN2)", "sequence (Q8VNN2 whole entry)": "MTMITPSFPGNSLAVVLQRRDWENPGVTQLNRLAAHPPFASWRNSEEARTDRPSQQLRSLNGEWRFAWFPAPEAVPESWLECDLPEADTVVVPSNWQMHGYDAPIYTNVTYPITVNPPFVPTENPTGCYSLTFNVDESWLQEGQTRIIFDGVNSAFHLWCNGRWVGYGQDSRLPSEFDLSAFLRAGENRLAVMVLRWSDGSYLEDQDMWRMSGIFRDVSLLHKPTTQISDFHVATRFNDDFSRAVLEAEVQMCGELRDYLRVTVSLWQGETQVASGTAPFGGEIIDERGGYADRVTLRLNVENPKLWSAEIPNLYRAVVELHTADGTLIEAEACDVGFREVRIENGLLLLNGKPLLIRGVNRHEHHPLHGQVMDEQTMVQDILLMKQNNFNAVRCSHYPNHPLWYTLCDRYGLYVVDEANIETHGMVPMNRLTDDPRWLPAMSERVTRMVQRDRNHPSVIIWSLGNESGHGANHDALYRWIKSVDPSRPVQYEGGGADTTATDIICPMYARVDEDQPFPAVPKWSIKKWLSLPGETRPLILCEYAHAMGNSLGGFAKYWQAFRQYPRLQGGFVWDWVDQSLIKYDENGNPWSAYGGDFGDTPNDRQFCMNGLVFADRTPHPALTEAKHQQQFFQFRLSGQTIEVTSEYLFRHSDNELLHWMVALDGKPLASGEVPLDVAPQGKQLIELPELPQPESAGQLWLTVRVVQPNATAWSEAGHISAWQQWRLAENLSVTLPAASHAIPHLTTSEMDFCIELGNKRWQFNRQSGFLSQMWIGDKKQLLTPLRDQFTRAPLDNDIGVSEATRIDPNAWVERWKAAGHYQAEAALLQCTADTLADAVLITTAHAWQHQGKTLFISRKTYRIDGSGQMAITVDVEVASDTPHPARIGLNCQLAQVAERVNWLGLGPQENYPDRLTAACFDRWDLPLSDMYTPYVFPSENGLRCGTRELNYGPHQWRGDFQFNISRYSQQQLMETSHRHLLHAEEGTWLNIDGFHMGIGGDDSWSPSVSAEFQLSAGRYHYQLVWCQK", "test": "beta-galactosidase enzyme inhibitors and activators, dose response, artefact control for CCR6 antagonist project, biochemical, E. coli enzyme, set 3 (AID 504712)", "assay_type": "functional"}, "Genome polyprotein": {"biological_target": "Genome polyprotein (dengue virus type 2, UniProt P29990)", "sequence (P29990 2492-3391 limits assumed)": "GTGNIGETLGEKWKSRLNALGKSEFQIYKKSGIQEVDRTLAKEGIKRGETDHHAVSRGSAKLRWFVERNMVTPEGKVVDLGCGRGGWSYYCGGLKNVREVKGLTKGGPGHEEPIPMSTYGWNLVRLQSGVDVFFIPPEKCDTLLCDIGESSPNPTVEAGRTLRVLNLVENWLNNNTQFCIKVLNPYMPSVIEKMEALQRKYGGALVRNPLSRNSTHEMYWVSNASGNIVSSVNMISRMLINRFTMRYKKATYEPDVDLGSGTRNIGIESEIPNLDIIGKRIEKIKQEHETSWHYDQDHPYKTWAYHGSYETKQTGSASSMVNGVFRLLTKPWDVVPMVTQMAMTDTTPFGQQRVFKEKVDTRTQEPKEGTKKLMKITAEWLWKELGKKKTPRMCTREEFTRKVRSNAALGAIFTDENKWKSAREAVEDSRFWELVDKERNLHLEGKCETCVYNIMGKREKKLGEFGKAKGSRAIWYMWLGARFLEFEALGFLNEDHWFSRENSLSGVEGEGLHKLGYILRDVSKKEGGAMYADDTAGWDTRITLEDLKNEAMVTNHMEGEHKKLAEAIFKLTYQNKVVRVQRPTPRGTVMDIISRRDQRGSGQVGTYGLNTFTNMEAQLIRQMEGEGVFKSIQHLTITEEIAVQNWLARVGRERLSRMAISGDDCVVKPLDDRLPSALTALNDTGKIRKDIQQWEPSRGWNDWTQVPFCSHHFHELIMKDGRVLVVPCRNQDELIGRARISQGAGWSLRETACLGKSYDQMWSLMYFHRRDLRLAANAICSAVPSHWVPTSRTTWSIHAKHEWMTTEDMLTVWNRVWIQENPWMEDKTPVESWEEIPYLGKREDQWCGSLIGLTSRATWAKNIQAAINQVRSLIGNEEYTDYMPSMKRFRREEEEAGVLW", "test": "Dengue-2 NS5 methyltransferase inhibitors, primary screen, biochemical, confirmation dose response (AID 588689)", "assay_type": "functional"}}, "note": "The source made the active and inactive calls.", "data": [{"smiles": "CN(C)CCCn1c(=O)n(CCc2ccccc2)c(=O)c2c3c(sc21)CCCCC3", "values": [{"measurement": "IC50", "setting": "[1]", "result": "12.6 µM (active)"}, {"measurement": "CC50", "setting": "[2]", "result": "19.1 µM (active)"}, {"measurement": "EC50", "setting": "[3]", "result": "36.1 µM (active)"}, {"measurement": "EC50", "setting": "[4]", "result": "0.113 µM (active)"}, {"measurement": "CC50", "setting": "[5]", "result": "12.5 µM (active)"}, {"measurement": "IC50", "setting": "cells", "result": "21.2 µM (active)"}, {"measurement": "CC50", "setting": "[6]", "result": "14.3 µM (active)"}]}, {"smiles": "CN1C(=O)/C(=C/c2cccn2-c2ccc3ccccc3c2)C(=O)NC1=S", "values": [{"measurement": "EC50", "setting": "Streptococcus", "result": "> 50 µM (not active)"}, {"measurement": "CC50", "setting": "[7]", "result": "14.5 µM (active)"}, {"measurement": "AC50", "setting": "[8]", "result": "9.42 µM (active)"}, {"measurement": "EC50", "setting": "Streptokinase A", "result": "4.97 µM (active)"}, {"measurement": "EC50", "setting": "[9]", "result": "12.1 µM (active)"}, {"measurement": "EC50", "setting": "[10]", "result": "5.56 µM (active)"}]}, {"smiles": "CC(C)c1nc2oc3c(NCC4CCCO4)ncnc3c2c2c1COC(C)(C)C2", "note": "(configuration not stated)", "values": [{"measurement": "EC50", "setting": "[11]", "result": "> 112 µM (not active)"}, {"measurement": "IC50", "setting": "Hexokinase HKDC1", "result": "3.81 µM (active)"}, {"measurement": "EC50", "setting": "[12]", "result": "> 112 µM (not active)"}]}, {"smiles": "Nc1c(S(=O)(=O)O)cc(NC(=O)c2ccccc2)c2c1C(=O)c1ccccc1C2=O", "values": [{"measurement": "IC50", "setting": "[13]", "result": "26.9 µM (inactive)"}, {"measurement": "CC50", "setting": "Vero", "result": "> 40 µM (active)"}, {"measurement": "IC50", "setting": "Nonstructural protein 1", "result": "13.3 µM (active)"}, {"measurement": "IC50", "setting": "Beta-galactosidase", "result": "> 66.6 µM (inactive)"}, {"measurement": "IC50", "setting": "Genome polyprotein", "result": "34.3 µM (active)"}]}, {"smiles": "CC(=O)n1cc(C(C[N+](=O)[O-])SCCN)c2ccccc21", "note": "(configuration not stated)", "values": [{"measurement": "EC50", "setting": "[9]", "result": "14.2 µM (active)"}]}]}
